# Assay results: ChEMBL document CHEMBL1201862, “PubChem BioAssay data set” (2004)
#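 In this assay, cells in 96-well plates receive the compound at five concentrations for 48 hours. Endpoints are linearly interpolated between the surrounding concentrations. At the GI50, growth is halved.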 Calls of active or inactive are those of the source. Cut-off read from the data, not from the text of the source: active = GI50 up to about 1.1 µM and inactive = higher.
# Assays:
# Experiment in all cases: NCI anticancer screen, dose series, 48 h
# HOP-92 = test system: HOP-92
# SK-MEL-2 = test system: SK-MEL-2
# HCC 2998 = test system: HCC 2998
# NCI-H522 = test system: NCI-H522
# UO-31 = test system: UO-31
# OVCAR-3 = test system: OVCAR-3
# SNB-75 = test system: SNB-75
# KM12 = test system: KM12
# TK-10 = test system: TK-10
# UACC-257 = test system: UACC-257
# SK-MEL-5 = test system: SK-MEL-5
# A498 = test system: A498
# SK-MEL-28 = test system: SK-MEL-28
# SF-295 = test system: SF-295
# M14 = test system: M14
# NCI-H460 = test system: NCI-H460
# MOLT-4 = test system: MOLT-4
# DU-145 = test system: DU-145
SMILES,GI50 (HOP-92),GI50 (SK-MEL-2),GI50 (HCC 2998),GI50 (NCI-H522),GI50 (UO-31),GI50 (OVCAR-3),GI50 (SNB-75),GI50 (KM12),GI50 (TK-10),GI50 (UACC-257),GI50 (SK-MEL-5),GI50 (A498),GI50 (SK-MEL-28),GI50 (SF-295),GI50 (M14),GI50 (NCI-H460),GI50 (MOLT-4),GI50 (DU-145)
C=C1C(=O)C23[C@H](O)C1CC[C@H]2[C@]12COC3(O)[C@@H](O)[C@@H]1C(C)(C)CC[C@@H]2O,3.95 µM (inactive),2.28 µM (inactive),15.8 µM (inactive),0.552 µM (active),15.4 µM (inactive),14.8 µM (inactive),20.4 µM (inactive),16.9 µM (inactive),17.2 µM (inactive),15.5 µM (inactive),15.1 µM (inactive),9.1 µM (inactive),2.72 µM (inactive),17.6 µM (inactive),5.57 µM (inactive),16 µM (inactive),3.27 µM (inactive),–
CS(=O)(=O)CC1=Nc2nnc(CCCCCCCc3nnc4n3C(=O)C(CS(C)(=O)=O)=N4)n2C1=O,> 100 µM (inactive),–,> 100 µM (inactive),> 100 µM (inactive),> 100 µM (inactive),> 100 µM (inactive),> 100 µM (inactive),> 100 µM (inactive),> 100 µM (inactive),> 100 µM (inactive),> 100 µM (inactive),> 100 µM (inactive),> 100 µM (inactive),> 100 µM (inactive),> 100 µM (inactive),> 100 µM (inactive),> 100 µM (inactive),–
O=C(O/N=C1/CCC/C1=C\c1ccccc1)c1ccc([N+](=O)[O-])cc1,> 100 µM (inactive),> 100 µM (inactive),11.7 µM (inactive),> 100 µM (inactive),25.3 µM (inactive),> 100 µM (inactive),31.6 µM (inactive),> 100 µM (inactive),> 100 µM (inactive),> 100 µM (inactive),> 100 µM (inactive),> 100 µM (inactive),> 100 µM (inactive),> 100 µM (inactive),> 100 µM (inactive),> 100 µM (inactive),> 100 µM (inactive),–
COc1cccc(/C=N/NC(N)=O)c1O,> 100 µM (inactive),> 100 µM (inactive),> 100 µM (inactive),> 100 µM (inactive),> 100 µM (inactive),> 100 µM (inactive),> 100 µM (inactive),> 100 µM (inactive),> 100 µM (inactive),> 100 µM (inactive),> 100 µM (inactive),> 100 µM (inactive),> 100 µM (inactive),> 100 µM (inactive),> 100 µM (inactive),> 100 µM (inactive),> 100 µM (inactive),–
O=C(CNC(=O)OCc1ccccc1)Oc1ccccc1,> 100 µM (inactive),> 100 µM (inactive),> 100 µM (inactive),> 100 µM (inactive),> 100 µM (inactive),> 100 µM (inactive),> 100 µM (inactive),> 100 µM (inactive),> 100 µM (inactive),> 100 µM (inactive),> 100 µM (inactive),> 100 µM (inactive),> 100 µM (inactive),> 100 µM (inactive),> 100 µM (inactive),> 100 µM (inactive),> 100 µM (inactive),–
COc1cc(-c2cc(CCC(=O)Nc3ccccc3[N+](=O)[O-])n(-c3ccc([N+](=O)[O-])cc3[N+](=O)[O-])n2)ccc1O,> 10 µM (inactive),> 10 µM (inactive),> 10 µM (inactive),> 10 µM (inactive),> 10 µM (inactive),> 10 µM (inactive),89.9 µM (inactive),> 10 µM (inactive),> 10 µM (inactive),> 10 µM (inactive),> 10 µM (inactive),> 10 µM (inactive),> 10 µM (inactive),> 10 µM (inactive),> 10 µM (inactive),> 10 µM (inactive),> 10 µM (inactive),–
Clc1ccc(SC(/C=C/NNC2=NN=C(c3ccccc3)C(c3ccccc3)N2)c2ccccc2)cc1 (centres undefined),7.98 µM (inactive),18.7 µM (inactive),19.7 µM (inactive),17.9 µM (inactive),13.2 µM (inactive),11.8 µM (inactive),15.2 µM (inactive),21 µM (inactive),36.5 µM (inactive),21.7 µM (inactive),14.7 µM (inactive),28.2 µM (inactive),20.8 µM (inactive),19.3 µM (inactive),18.5 µM (inactive),26.2 µM (inactive),11.2 µM (inactive),–
O=C1CC2C=CC1C2CO (centres undefined),> 100 µM (inactive),–,> 100 µM (inactive),> 100 µM (inactive),> 100 µM (inactive),> 100 µM (inactive),> 100 µM (inactive),> 100 µM (inactive),> 100 µM (inactive),> 100 µM (inactive),> 100 µM (inactive),> 100 µM (inactive),> 100 µM (inactive),> 100 µM (inactive),> 100 µM (inactive),> 100 µM (inactive),> 100 µM (inactive),–
COc1ccc2c(c1)C(=O)Cc1ccccc1CC2,> 100 µM (inactive),81.5 µM (inactive),> 100 µM (inactive),> 100 µM (inactive),> 100 µM (inactive),> 100 µM (inactive),27.7 µM (inactive),> 100 µM (inactive),> 100 µM (inactive),> 100 µM (inactive),> 100 µM (inactive),> 100 µM (inactive),> 100 µM (inactive),> 100 µM (inactive),> 100 µM (inactive),> 100 µM (inactive),> 100 µM (inactive),–
CCCCCCC1OC23OC1CCC2C(O)CCC3O (centres undefined),–,> 100 µM (inactive),> 100 µM (inactive),> 100 µM (inactive),> 100 µM (inactive),> 100 µM (inactive),> 100 µM (inactive),> 100 µM (inactive),> 100 µM (inactive),> 100 µM (inactive),> 100 µM (inactive),> 100 µM (inactive),> 100 µM (inactive),> 100 µM (inactive),–,> 100 µM (inactive),> 100 µM (inactive),> 100 µM (inactive)
CC(=O)Nc1ccc(/C=C(\NC(=O)c2ccccc2)c2nc3ccc4c(c3[nH]2)C(=O)c2ccccc2C4=O)cc1,22.9 µM (inactive),48.8 µM (inactive),> 100 µM (inactive),4.9 µM (inactive),1.59 µM (inactive),12.4 µM (inactive),9.51 µM (inactive),–,17.5 µM (inactive),> 100 µM (inactive),21.8 µM (inactive),7.78 µM (inactive),45 µM (inactive),22.6 µM (inactive),43.1 µM (inactive),–,2.88 µM (inactive),–
COc1cc2c(cc1O)[C@H](C)C(c1ccc(OC)c(OC)c1)O2 (some centres undefined),10.4 µM (inactive),3.1 µM (inactive),7.6 µM (inactive),9.23 µM (inactive),5.69 µM (inactive),5.66 µM (inactive),1.95 µM (inactive),16.7 µM (inactive),15.7 µM (inactive),10.9 µM (inactive),6.01 µM (inactive),22.6 µM (inactive),9.75 µM (inactive),6.56 µM (inactive),4.68 µM (inactive),2.13 µM (inactive),6.41 µM (inactive),–
